Data as given in US20140234318A1, “TUMOR SPECIFIC OLIGOSACCHARIDE EPITOPES AND USE THEREOF” (GLYKOS FINLAND OY, priority 2002, published 2014).

Tests used:
Helicobacter pylori [1] = assay: Receptor activity of oligosaccharides for Helicobacter pylori; format: binding; conditions: relative to the non-galactosylated receptor
Method: The structure is changed to 10-fold weaker receptor structure Galβ4GlcNAcβ3Galβ4GlcNAcβ3Galβ4Glc by incubating it with UDP-Gal and β4-galactosyltransferase from bovine milk. b) The oligosaccharide receptor GlcNAcβ3Galβ4GlcNAcβ3Galβ4Glc is incubated with GDP-Fuc and soluble human fucosyltransferase VI corresponding to major the fucosyltransferase from human milk. MALDI-TOF mass spectrometric analysis reveled a major peak corresponding to GlcNAcβ3Galβ4(Fucα3)GlcNAcβ3Galβ4Glc, the structure is confirmed by NMR-spectroscopy. c) Erythrocytes from a patient suffering from glycosylation deficiency causing high levels of terminal GlcNAc-structures including GlcNAcβ3Galβ4GlcβCer are incubated with radiolabeled UDP-Gal and βgalactosyltransferase. Transfer of labeled galactose on the cell surface is observed. The galactosylation of the cells reduces the reactivity of the cells with anti-GlcNAc-antibodies.

Helicobacter pylori [2] = conditions: cited from earlier work
[3] = tested on: endogenous galactosyltransferase activity of human serum; assay: Activation of endogenous galactosyltransferase activity of human serum; format: biochemical
Method: Fresh human blood sample was collected from blood group B-individual (5 ml). After clotting for 30 min it was centrifuged at +4° C., 2000 rpm for 25 minutes, and the serum was collected for experiments (2 ml, stored on ice).
Reactions were performed with 50 nmol of acceptor saccharide (GlcNAcβ1-3Galβ1-4GlcNAc, from enzymatic synthesis, purified by ion exchange and gel filtration, characterized by NMR and mass spectrometry), 5 nmol UDP-[^14C]Gal (mixture of nonlabelled and radioactive, radioactivity was 100 000 cpm) and 20 μl of fresh human serum (total volume was 20 μl). Reaction conditions were varied by adding cations and bovine milk β1,4-galactosyltransferase (β1,4GalT).

[4] = tested on: IgG antibodies against specific carbohydrate epitopes in serum of cancer patients; assay: ELISA of serum IgG antibodies binding to synthetic glycoconjugates; set-up: species or system human; conditions: for serum antibody levels against the epitope, summary in words: IgG and IgM, group of four cancer patients
From the text: (§1) A group of four people with various stages of diagnosed cancer of the gastrointestinal tract or the ovary, was studied by analyzing serum samples for their concentrations of IgG and IgM antibodies against specific carbohydrate epitopes. The assay consisted of binding of specific antibodies from serum to synthetic glycoconjugates, washing, and then detecting the specifically bound antibody levels in ELISA with enzyme-labelled anti-human IgG or anti-human IgM secondary antibodies and quantitation of specific reaction products.

[5] = tested on: IgM antibodies against specific carbohydrate epitopes in serum of cancer patients; assay: ELISA of serum IgM antibodies binding to synthetic glycoconjugates; set-up: species or system human
From the text: as §1

[6] = tested on: recombinant β1,4-galactosyltransferase similar to the enzyme described in (Ramakrishnan and Qasba, 2002); assay: Transfer of modified galactosamine from UDP-GalN conjugates to terminal GlcNAc acceptor by modified galactosyltransferase; format: biochemical, bovine; conditions: MALDI-TOF MS of the product
[7] = tested on: terminal GlcNAc residues in lung adenocarcinoma tissue sections; assay: Labeling of terminal GlcNAc residues in tissue sections with UDP-GalN-biotin; set-up: species or system human; conditions: streptavin-FITC, fluorescence microscopy
Method: In a typical procedure, an oligosaccharide acceptor such as GlcNAcβ1-3Galβ1-4GlcNAcβ1-3Galβ1-4Glc, or deparaffinised formalin-fixed paraffin-embedded tissue sections, are incubated at + 37° C. with a reaction mixture containing 10 mM UDP-GalN-biotin, 160 U/l enzyme, 100 mM Tris-HCl, and 20 mM MnCl2. After washing, the biotin groups are visualised by standard methods in the art, using streptavidin or avidin coupled reagents, for example streptavidin-FITC.

Compound	antibody signal intensity from which the assay background has been subtracted ([4]; Patient 1, IgG)	antibody signal intensity from which the assay background has been subtracted ([4]; Patient 2, IgG)	antibody signal intensity from which the assay background has been subtracted ([4]; Patient 3, IgG)	antibody signal intensity from which the assay background has been subtracted ([4]; Patient 4, IgG)	antibody signal intensity from which the assay background has been subtracted ([5]; Patient 1, IgM)	antibody signal intensity from which the assay background has been subtracted ([5]; Patient 2, IgM)	antibody signal intensity from which the assay background has been subtracted ([5]; Patient 3, IgM)	antibody signal intensity from which the assay background has been subtracted ([5]; Patient 4, IgM)	serum antibody levels against the epitope, summary in words [4]	other results
CC(=O)N[C@H]1[C@H](O[C@H]2[C@@H](O)[C@@H](CO)O[C@@H](O[C@H]3[C@H](O)[C@@H](NC(C)=O)[C@H](O[C@H]4[C@@H](O)[C@@H](CO)O[C@@H](O[C@H]5[C@H](O)[C@@H](O)C(O)O[C@@H]5CO)[C@@H]4O)O[C@@H]3CO)[C@@H]2O)O[C@H](CO)[C@@H](O[C@@H]2O[C@H](CO)[C@H](O)[C@H](O)[C@H]2O)[C@@H]1O (stereo partly shown) [Galβ4GlcNAcβ3Galβ4GlcNAcβ3Galβ4Glc]										receptor strength for Helicobacter pylori, weaker than GlcNAcβ3Galβ4GlcNAcβ3Galβ4Glc (Helicobacter pylori [1]): 10 fold
CC(=O)N[C@H]1[C@H](O[C@H]2[C@@H](O)[C@@H](CO)O[C@@H](O[C@H]3[C@H](O)[C@@H](O)C(O)O[C@@H]3CO)[C@@H]2O)O[C@H](CO)[C@@H](O[C@@H]2O[C@H](CO)[C@H](O)[C@@H](O[C@@H]3O[C@H](CO)[C@@H](O)[C@H](O)[C@H]3NC(C)=O)[C@H]2O)[C@@H]1O (stereo partly shown) [GlcNAcβ3Galβ4GlcNAcβ3Galβ4Glc]										receptor for Helicobacter pylori (Helicobacter pylori [2]): receptor for the gastric pathogen Helicobacter pylori
[Cl][Mn][Cl] [MnCl2]										Product ([3]; 0.2 mM MnCl2, no external β1,4GalT): 457 cpm; Product ([3]; 1 mM MnCl2, no external β1,4GalT): 1073 cpm; Product ([3]; 5 mM MnCl2, no external β1,4GalT): 566 cpm
GlcNAcβ1-2Manα1-6(GlcNAcβ1-2Manα1-3)Manβ1-4GlcNAcβ1-4(Fucα1-6)GlcNAcβ-N-Asn-R [Saccharide 1]	0	0	0.006	0	0	0	0.01	0	elevated in one patient	
GlcNAcβ1-6(Galβ1-3)GalNAcα-O—CH2—R [Saccharide 3]	0.039	0.078	0	0	0.091	0.008	0.068	0.042	elevated in the whole patient group	
uridine 5′-diphospho-N-(6-biotinamidohexanoyl)galactosamine [UDP-GalN-biotin]										transfer of the modified galactosamine residue to a terminal GlcNAc acceptor [6]: reacted; labeling of cancer cells in tissue sections [7]: cancer cells could be labeled

Continued, in another order:

antibody signal intensity from which the assay background has been subtracted ([4]; Patient 1, IgG)	antibody signal intensity from which the assay background has been subtracted ([4]; Patient 2, IgG)	antibody signal intensity from which the assay background has been subtracted ([4]; Patient 3, IgG)	antibody signal intensity from which the assay background has been subtracted ([4]; Patient 4, IgG)	antibody signal intensity from which the assay background has been subtracted ([5]; Patient 1, IgM)	antibody signal intensity from which the assay background has been subtracted ([5]; Patient 2, IgM)	antibody signal intensity from which the assay background has been subtracted ([5]; Patient 3, IgM)	antibody signal intensity from which the assay background has been subtracted ([5]; Patient 4, IgM)	Compound	serum antibody levels against the epitope, summary in words [4]	other results
0.017	0.094	0	0	0.125	0.041	0.011	0.056	GlcNAcβ1-3GalNAcα-O—CH2—R [Saccharide 5]	identical pattern of antibody type response	
0	0.082	0.013	0	0.159	0.029	0.122	0	GlcNAcβ-O—CH2—R [Saccharide 4]	Two patients showed elevated serum levels of mainly IgM and one patient mainly IgG	
